Reference: patent US10206877B2, “Pharmaceutical compositions for the treatment of cystic fibrosis transmembrane conductance regulator mediated diseases” (Vertex Pharmaceuticals Incorporated, priority 2014, dated 2019)
Each block holds one compound with its values, some of them ahead of it.

Experiments:
[1] = Compound 1 crystallization kinetics at elevated temperature and 75% relative humidity; format: physicochemical; conditions: for Crystallization / stability towards crystallization: 75% relative humidity; for Compound 1 crystallized: at about 25 hours; for stability towards crystallization: 80° C. and 70° C. (FIGS. 12, 13)
Method: FIG. 12 is a plot of crystallization kinetics data for Compound 1 at 80° C. and 75% relative humidity when in a Compound 2 free tablet (circles), a spray dried dispersion (squares), and a tablet comprising Compound 2 (triangles).
FIG. 13 is a plot of crystallization kinetics data for Compound 1 at 70° C. and 75% relative humidity when in a Compound 2 free tablet (circles), a spray dried dispersion (squares), and a tablet comprising Compound 2 (triangles).
FIGS. 12 and 13 depict the Compound 1 crystallization kinetics under 75% relative humidity and 80° C. and 70° C., respectively. Triangles represent a tablet formulation of a blend of the two separate spray dried dispersions of Compound 1 and Compound 2. Circles represent the same tablet formulation just lacking Compound 2. Squares represent the separate spray dried dispersion of Compound 1.
The phenomena of one therapeutic agent having improved properties in the presence of another therapeutic agent is not limited to the neat co-spray dried dispersions substantially free of polymer previously described. […] Table 2 lists the % crystallization of an 80% by weight SDD of Compound 1 over time at 80° C. at 75% relative humidity in the absence of Compound 2. Table 3 lists the % crystallization of Compound 1 in the presence of Compound 2 in a tablet of the present invention comprising a blend of Compound 1 SDD and Compound 2 SDD at […] at 75% relative humidity.

[2] = Kinetic dissolution / fluid stability in fed state simulated intestinal fluid (FedSIF); format: physicochemical
From the text: FIG. 9 is a bar graph of kinetic dissolution data for Compound 1 in fed state simulated intestinal fluid (FedSIF) solutions in the presence of Compound 2 in a neat coSDD substantially free of polymer and alone as measured by concentration versus time.
FIG. 10 is a bar graph of kinetic dissolution data for Compound 2 in FedSIF solutions in the presence of Compound 1 in a neat coSDD substantially free of polymer and alone as measured by concentration versus time.
The present invention features compositions where properties such as physical stability and dissolution rates are improved when one therapeutic agent is in the presence of another. […] FIG. 9 depicts fluid stability of Compound 1 in fed state simulated intestinal fluid (FedSIF). The set of bars labeled Neat 1:1 coSDD is the neat coSDD of Compound 1 and Compound 2 substantially free of polymer featured in the present invention. Along the y axis is concentration of Compound 1 in mg/ml and each bar along the x axis represents time: 0.5 h, 1 h, 3 h, 5 h, 29 h, and 72 h.
FIG. 10 depicts fluid stability of Compound 2 in compositions of the present invention in FedSIF. The set of bars labeled Neat 1:1 coSDD is the neat coSDD of Compound 1 and Compound 2 substantially free of polymer featured in the present invention.

[3] = Dissolution rate experiments in fasted simulated fluids; format: physicochemical; conditions: tablet of neat co-spray dried dispersion of Compound 1 and Compound 2 vs tablet of SDD of Compound 2 alone and polymer; fasted simulated fluids (FIG. 11)
From the text: FIG. 11 is a plot of dissolution data for Compound 2 in fasted simulated fluids alone and in the presence of Compound 1 in a neat coSDD substantially free of polymer. […] FIG. 11 depicts the results of dissolution rate experiments for a tablet comprising the neat co-spray dried dispersion of Compound 1 and Compound 2 (circles) and a tablet comprising a spray dried dispersion of Compound 2 alone and polymer (triangles).

[4] = Dog pK of tablets (Compound 2 exposure); format: in vivo
From the text: FIG. 11 depicts the results of dissolution rate experiments for a tablet comprising the neat co-spray dried dispersion of Compound 1 and Compound 2 (circles) and a tablet comprising a spray dried dispersion of Compound 2 alone and polymer (triangles). […] When Compound 2 is in the presence of Compound 1, the maximum concentration and area under the curve increases by 73% and 47%, respectively, relative to Compound 2 alone.

[5] = dog pK, ratio Neat coSDD tablet / Individual Tablets (Compound 2 alone)
[6] = dog, Compound 2 in the presence of Compound 1 relative to Compound 2 alone

Crystallization ([1]; 80% by weight SDD of Compound 1, absence of Compound 2, 80° C., 0 Hrs.): 0% | Crystallization ([1]; 80% by weight SDD of Compound 1, absence of Compound 2, 80° C., 5.2 Hrs.): 0% | Crystallization ([1]; 80% by weight SDD of Compound 1, absence of Compound 2, 80° C., 6 Hrs.): 0% | Crystallization ([1]; 80% by weight SDD of Compound 1, absence of Compound 2, 80° C., 9 Hrs.): 0.7% | Crystallization ([1]; 80% by weight SDD of Compound 1, absence of Compound 2, 80° C., 14.7 Hrs.): 5% | Crystallization ([1]; 80% by weight SDD of Compound 1, absence of Compound 2, 80° C., 25 Hrs.): 46.4% | Crystallization ([1]; 80% by weight SDD of Compound 1, absence of Compound 2, 80° C., 168 Hrs.): 88% | Compound 1 crystallized ([1]; in the absence of Compound 2): 46% | Crystallization ([1]; tablet comprising a blend of Compound 1 SDD and Compound 2 SDD, 80 CC, 0 Hrs.): 0% | Crystallization ([1]; tablet comprising a blend of Compound 1 SDD and Compound 2 SDD, 80 CC, 7 Hrs.): 3% | Crystallization ([1]; tablet comprising a blend of Compound 1 SDD and Compound 2 SDD, 80 CC, 14 Hrs.): 6% | Crystallization ([1]; tablet comprising a blend of Compound 1 SDD and Compound 2 SDD, 80 CC, 21 Hrs.): 8% | Crystallization ([1]; tablet comprising a blend of Compound 1 SDD and Compound 2 SDD, 80 CC, 26 Hrs.): 10% | stability towards crystallization ([1]; tablet formulation with Compound 2 vs separate spray dried dispersion of Compound 1): also more stable | Compound 1 crystallized ([1]; when Compound 2 was present): 10% | concentration stability of Compound 1 in FedSIF ([2]; 1:1 coSDD (20% HPMCAS) vs Compound 1 SDD (50% HPMCAS), over 72 h (FIG. 9)): concentration stability is greater | concentration stability of Compound 1 in FedSIF ([2]; 2:1 coSDD (20% HPMCAS) vs Compound 1 SDD (50% HPMCAS), over 72 h (FIG. 9)): more consistent | stability of Compound 1 concentration in FedSIF ([2]; Neat 1:1 coSDD (no polymer) vs Compound 1 SDD (50% HPMCAS), over 72 h (FIG. 9)): greater and more consistent stability
SMILES: CC(C)(CO)c1cc2cc(NC(=O)C3(c4ccc5c(c4)OC(F)(F)O5)CC3)c(F)cc2n1C[C@@H](O)CO [Compound 1, (R)-1-(2,2-difluorobenzo[d][1,3]dioxol-5-yl)-N-(1-(2,3-dihydroxypropyl)-6-fluoro-2-(1-hydroxy-2-methylpropan-2-yl)-1H-indol-5-yl)cyclopropanecarboxamide]
stability towards crystallization ([1]; tablet blend of the two separate SDDs vs Compound 2 free tablet): significantly more stable towards crystallization

concentration stability of Compound 2 in FedSIF ([2]; 1:1 coSDD (20% HPMCAS) vs Compound 2 SDD (20% HPMCAS), over 72 h (FIG. 10)): concentration stability is greater | concentration stability of Compound 2 in FedSIF ([2]; 2:1 coSDD (20% HPMCAS) vs Compound 2 SDD (20% HPMCAS), over 72 h (FIG. 10)): more consistent | stability of Compound 2 concentration in FedSIF ([2]; Neat 1:1 coSDD (no polymer) vs Compound 2 SDD (20% HPMCAS), over 72 h (FIG. 10)): increased stability | AUC wt norm, Geometric Mean Ratio [4, 5]: 146.73 | Cmax wt norm, Geometric Mean Ratio [4, 5]: 172.93 | increase of area under the curve [4, 6]: 47% | increase of maximum concentration [4, 6]: 73%
SMILES: CC(C)(C)c1cc(C(C)(C)C)c(NC(=O)c2c[nH]c3ccccc3c2=O)cc1O [Compound 2, N-[2,4-bis(1,1-dimethylethyl)-5-hydroxyphenyl]-1,4-dihydro-4-oxoquinoline-3-carboxamide]
dissolution rate of Compound 2 [3]: significant increase in dissolution rates | exposure in vivo ([4]; dog, tablet of neat coSDD relative to tablet of Compound 2 alone): statistically significant increases in exposure
